For the assay, the system named is L1210 leukemia ip in BDF1 mice, survival T/C. In words: NCI In Vivo Anticancer Drug Screen. Data for tumor model L1210 Leukemia (intraperitoneal) in B6D2F1 (BDF1) mice. Conditions: endpoint: mean survival time, higher = longer survival. The method, boiled down:
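Antitumor effect is assessed in tumor-bearing animals. Survival in the compound arm is compared with a vehicle-dosed control arm and expressed as their quotient.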

Setting [1] is: dose: 100.0 mg/kg/injection, schedule: Q01DX001 (ip), vehicle: saline with Tween-80.
[2] abbreviates: dose: 200.0 mg/kg/injection, schedule: Q01DX001 (ip), vehicle: saline with Tween-80.
Setting [3] is: dose: 400.0 mg/kg/injection, schedule: Q01DX001 (ip), vehicle: saline with Tween-80.
The mark [4] stands for this setting: dose: 100.0 mg/kg/injection, schedule: Q04DX002 (ip), vehicle: saline.
[5] abbreviates: dose: 100.0 mg/kg/injection, schedule: Q01DX001 (ip), vehicle: saline.
Setting [6] is: dose: 200.0 mg/kg/injection, schedule: Q01DX001 (ip), vehicle: saline.
[7] abbreviates: dose: 100.0 mg/kg/injection, schedule: Q01DX009 (ip), vehicle: Klucel (hydroxypropylcellulose) (HPC).
Where [8] appears, read: dose: 100.0 mg/kg/injection, schedule: Q04DX003 (ip), vehicle: Klucel (hydroxypropylcellulose) (HPC).
The mark [9] stands for this setting: dose: 200.0 mg/kg/injection, schedule: Q01DX009 (ip), vehicle: Klucel (hydroxypropylcellulose) (HPC).
Setting [10] is: dose: 200.0 mg/kg/injection, schedule: Q04DX003 (ip), vehicle: Klucel (hydroxypropylcellulose) (HPC).
Where [11] appears, read: dose: 400.0 mg/kg/injection, schedule: Q01DX009 (ip), vehicle: Klucel (hydroxypropylcellulose) (HPC).
The mark [12] stands for this setting: dose: 400.0 mg/kg/injection, schedule: Q04DX003 (ip), vehicle: Klucel (hydroxypropylcellulose) (HPC).
Setting [13] is: dose: 50.0 mg/kg/injection, schedule: Q01DX009 (ip), vehicle: Klucel (hydroxypropylcellulose) (HPC).
Where [14] appears, read: dose: 100.0 mg/kg/injection, schedule: Q01DX009 (ip), vehicle: saline with Tween-80.
The mark [15] stands for this setting: dose: 200.0 mg/kg/injection, schedule: Q01DX009 (ip), vehicle: saline with Tween-80.
Setting [16] is: dose: 100.0 mg/kg/injection, schedule: Q01DX001 (ip), vehicle: Klucel (hydroxypropylcellulose) (HPC).
Setting [17] is: dose: 200.0 mg/kg/injection, schedule: Q01DX001 (ip), vehicle: Klucel (hydroxypropylcellulose) (HPC).

“And” between values parts separate entries of the source, which are not always exact repeats. Equal entries are not always repeated. Toxic doses and inconclusive results are not listed.

`CC(=O)n1c(O)c(N=NC(=N)N[N+](=O)[O-])c2ccccc21`: the T/C is 97 % of control under setting [1]; 101 % of control (dose: 132.0 mg/kg/injection, schedule: Q01DX001 (ip), vehicle: saline with Tween-80); 97 % of control under setting [2]; 106 % of control (dose: 300.0 mg/kg/injection, schedule: Q01DX001 (ip), vehicle: saline with Tween-80); 101 % of control under setting [3].

Take `C[N+]1(CCNC2=CC(=O)C(NCC[N+]3(C)CCOCC3)=CC2=O)CCOCC1`: the T/C is 103 % of control (dose: 5.0 mg/kg/injection, schedule: Q01DX001 (ip), vehicle: saline); 101 % of control (dose: 10.0 mg/kg/injection, schedule: Q01DX001 (ip), vehicle: saline); 101 % of control (dose: 20.0 mg/kg/injection, schedule: Q01DX001 (ip), vehicle: saline); 101 % of control (dose: 40.0 mg/kg/injection, schedule: Q01DX001 (ip), vehicle: saline); 97 % of control (dose: 80.0 mg/kg/injection, schedule: Q01DX001 (ip), vehicle: saline).

For the molecule `CSc1nc(C)c(Br)c(N2CC2)n1`, the T/C (dose: 50.0 mg/kg/injection, schedule: Q01DX Z (ip), vehicle: methylcellulose (MC)) was 95 % of control.

Take `CCCCc1cnc(NCCCC(N)C(=O)O)nc1` (stereo not given): the T/C is, setting by setting: (dose: 25.0 mg/kg/injection, schedule: Q04DX002 (ip), vehicle: saline) 100 % of control; (dose: 50.0 mg/kg/injection, schedule: Q04DX002 (ip), vehicle: saline) 95 % of control; under setting [4], 92 % of control.

For the molecule `CO[C](=O)[Hg][c]1ccc(N=Cc2ccc(N(C)C)cc2Cl)cc1`, the T/C by setting is: (dose: 1.56 mg/kg/injection, schedule: Q01DX001 (ip), vehicle: saline with Tween-80) 99 % of control; (dose: 3.13 mg/kg/injection, schedule: Q01DX001 (ip), vehicle: saline with Tween-80) 103 % of control; (dose: 6.25 mg/kg/injection, schedule: Q01DX001 (ip), vehicle: saline with Tween-80) 89 % of control.

Regarding `O=C1C=C(c2ccccc2)CO1`, the T/C by setting is: under setting [5], 104 % of control; under setting [6], 122 % of control; (dose: 400.0 mg/kg/injection, schedule: Q01DX001 (ip), vehicle: saline) 98 % of control.

With `COc1cc(Cc2cc(OC)c(O)c(OC)c2)cc(OC)c1O`, the T/C under setting [7] is 107 % of control; the T/C under setting [8] is 92 % of control; the T/C under setting [9] is 93 % of control; the T/C under setting [10] was 97 % of control; the T/C under setting [11] was 101 % of control; the T/C under setting [12] is 95 % of control.

Regarding `CC(C)=CCC/C(C)=C/Cn1ccccc1=O`, the T/C under setting [1] was 98 % of control and the T/C under setting [2] was 98 % of control.

As for `C=CCN1C(=O)c2ccccc2C1=O`, the T/C reads like this: under setting [7], 100 % of control; under setting [8], 95 % of control; under setting [9], 100 % of control; under setting [10], 95 % of control; under setting [11], 91 % of control; under setting [12], 92 % of control.

With `S=c1n(Cc2ccccc2)cnc2ncnn12`, the T/C was 93 % of control under setting [13], 97 % of control under setting [7] and 95 % of control under setting [9].

Regarding `COC1(c2ccc([N+](=O)[O-])o2)OC1(C)C` (stereo not given), the T/C is, setting by setting: under setting [14], 98 % of control; (dose: 100.0 mg/kg/injection, schedule: Q04DX003 (ip), vehicle: saline with Tween-80) 113 % of control; under setting [15], 95 % of control; (dose: 200.0 mg/kg/injection, schedule: Q04DX003 (ip), vehicle: saline with Tween-80) 109 % of control; (dose: 400.0 mg/kg/injection, schedule: Q04DX003 (ip), vehicle: saline with Tween-80) 96 % of control.

For the molecule `CCOC(=O)C[S][Sn]([Cl])([Cl])[S]CC(=O)OCC`, the T/C is, setting by setting: under setting [1], 100 % of control; under setting [2], 92 % of control; under setting [3], 87 % of control.

`CC(Cc1ccccc1)NC(=O)NCCCl` (stereo not given): the T/C was 101 % of control (dose: 12.5 mg/kg/injection, schedule: Q01DX009 (ip), vehicle: Klucel (hydroxypropylcellulose) (HPC)); 101 % of control (dose: 25.0 mg/kg/injection, schedule: Q01DX009 (ip), vehicle: Klucel (hydroxypropylcellulose) (HPC)); 90 % of control under setting [13]; 92 % of control under setting [16]; 106 % of control under setting [8]; 90 % of control under setting [17]. The T/C is 117 % of control under setting [10] and 94 % of control (dose: 400.0 mg/kg/injection, schedule: Q01DX001 (ip), vehicle: Klucel (hydroxypropylcellulose) (HPC)).

As to `CC(=N\N=C(N)N)/C(N=Nc1ccc(S(N)(=O)=O)cc1)=N\N=C(N)N`, the T/C (dose: 15.0 mg/kg/injection, schedule: Q01DX Z (ip), vehicle: carboxymethylcellulose (CMC)) was 105 % of control; the T/C (dose: 30.0 mg/kg/injection, schedule: Q01DX Z (oral), vehicle: carboxymethylcellulose (CMC)) was 96 % of control and 102 % of control; the T/C (dose: 60.0 mg/kg/injection, schedule: Q01DX Z (ip), vehicle: carboxymethylcellulose (CMC)) was 160 % of control and 168 % of control and 184 % of control; the T/C (dose: 60.0 mg/kg/injection, schedule: Q01DX Z (oral), vehicle: carboxymethylcellulose (CMC)) was 109 % of control and 120 % of control; the T/C (dose: 120.0 mg/kg/injection, schedule: Q01DX Z (oral), vehicle: carboxymethylcellulose (CMC)) was 113 % of control.

Take `[C](#Cc1ccccc1)[Hg][C]#Cc1ccccc1`: the T/C is, setting by setting: under setting [8], 103 % of control; under setting [10], 94 % of control; under setting [12], 96 % of control.

With `Cc1cc(C)c(CCN(C)C)c(C)c1`, the T/C by setting is: (dose: 50.0 mg/kg/injection, schedule: Q01DX001 (ip), vehicle: saline) 101 % of control; under setting [5], 97 % of control; under setting [6], 91 % of control.

Take `O=[N+]([O-])c1sc2ccccc2c1Br`: the T/C by setting is: (dose: 5.0 mg/kg/injection, schedule: Q04DX002 (ip), vehicle: Klucel (hydroxypropylcellulose) (HPC)) 101 % of control; (dose: 10.0 mg/kg/injection, schedule: Q04DX002 (ip), vehicle: Klucel (hydroxypropylcellulose) (HPC)) 97 % of control; (dose: 20.0 mg/kg/injection, schedule: Q04DX002 (ip), vehicle: Klucel (hydroxypropylcellulose) (HPC)) 97 % of control.

Turning to `OCc1ccc(Cl)cc1`, the T/C by setting is: under setting [14], 102 % of control; under setting [15], 98 % of control; (dose: 400.0 mg/kg/injection, schedule: Q01DX009 (ip), vehicle: saline with Tween-80) 96 % of control.

As for `c1ccc2c(CCc3ccncc3)cccc2c1`, the T/C reads like this: under setting [7], 103 % of control; under setting [8], 101 % of control; under setting [9], 100 % of control; under setting [10], 103 % of control; under setting [11], 97 % of control; under setting [12], 100 % of control.

On to `CC(=O)Nc1nc(-c2ccccc2)c(CCC=O)c(=O)[nH]1`, for which the T/C is 93 % of control (dose: 50.0 mg/kg/injection, schedule: Q01DX001 (ip), vehicle: Klucel (hydroxypropylcellulose) (HPC)); 96 % of control under setting [16]; 104 % of control under setting [17].

Turning to `CCOCCOCCOC(C)Oc1cc(OC)ccc1OC` (stereo not given), the T/C under setting [4] is 107 % of control; the T/C (dose: 200.0 mg/kg/injection, schedule: Q04DX002 (ip), vehicle: saline) was 93 % of control; the T/C (dose: 400.0 mg/kg/injection, schedule: Q04DX002 (ip), vehicle: saline) was 101 % of control.

In the case of `O=C(c1ccccc1[N+](=O)[O-])N(O)c1ccc(/C=C/c2ccccc2)cc1`, the T/C is 93 % of control (dose: 100.0 mg/kg/injection, schedule: Q01DX001 (ip), vehicle: carboxymethylcellulose (CMC)); 95 % of control (dose: 200.0 mg/kg/injection, schedule: Q01DX001 (ip), vehicle: carboxymethylcellulose (CMC)); 95 % of control (dose: 400.0 mg/kg/injection, schedule: Q01DX001 (ip), vehicle: carboxymethylcellulose (CMC)).

The record behind these values is PubChem BioAssay AID248 (DTP/NCI, 2004).
